Laboratory results reported in patent US6818666B2, “Bi-aromatic compounds linked via a heteroethylene radical, and pharmaceutical and cosmetic compositions using them” (Galderma Research & Development, priority 1919, dated 2004).

Tested on: mouse embryonic teratocarcinoma F9 cells
Assay: differentiation test on mouse embryonic teratocarcinoma cells (F9), secretion of plasminogen activator
Format: cell-based
Conditions: for AC50: concentration of the test product which produces half of the maximum amount of plasminogen activator secreted; for RAR-agonist character concluded from F9 differentiation results: conclusion drawn from the F9 AC50 results
Excerpt: Results of differentiation tests on mouse embryonic teratocarcinoma cells (F9) to identify the RAR-agonist molecules as described in Skin Pharmacol. 3, pp. 256-267, 1990.
After treatment with the compounds of the examples cited in the following table, the mouse embryonic teratocarcinoma F9 cells differentiate into endodermal cells. This differentiation is characterized by the secretion of the plasminogen activator into the culture medium.
The activity of the product is expressed by the AC50 value representing the concentration of the test product which produces half of the maximum amount of plasminogen activator secreted.

Row | Structure (SMILES) | AC50 (Mus musculus, F9) [nM] | RAR-agonist character concluded from F9 differentiation results | AC50 [nM]
1 | Cc1cc2c(cc1[Se]C#Cc1ccc(C(=O)O)c(O)c1)C(C)(C)CCC2(C)C [Compound 16, 2-Hydroxy-4-(3,5,5,8,8-pentamethyl-5,6,7,8-tetrahydro-2-naphthylselanylethynyl)benzoic acid] | 33 | RAR-agonist | –
2 | CC1(C)CCC(C)(C)c2cc(SC#Cc3ccc(C(=O)O)cc3)ccc21 [Compound 2, 4-(5,5,8,8-Tetramethyl-5,6,7,8-tetrahydro-2-naphthylsuphanylethynyl)benzoic acid] | – | RAR-agonist | 1
3 | COC(=O)c1ccc(C#CSc2ccc3c(c2)C(C)(C)CCC3(C)C)cc1 [Compound 1, Methyl 4-(5,5,8,8,-tetramethyl-5,6,7,8-tetrahydro-2-nachthylsuphanylethynyl)-benzoate] | – | RAR-agonist | 20
4 | CC1(C)CCC(C)(C)c2cc([Se]C#Cc3ccc(C(=O)O)cc3)ccc21 [Compound 5, 4-(5,5,8,8-Tetramethyl-5,6,7,8-tetrahydro-2-naphthylselanylethynyl)benzoic acid] | 21 | RAR-agonist | –
5 | Cc1cc2c(cc1[Se]C#Cc1ccc(C(=O)O)cn1)C(C)(C)CCC2(C)C [Compound 18, 6-(3,5,5,8,8-Pentamethyl-5,6,7,8-tetrahydro-2-naphthylselanylethynyl)nicotinic acid] | 34 | RAR-agonist | –
6 | COC(=O)c1ccc(C#C[Se]c2ccc3c(c2)C(C)(C)CCC3(C)C)cc1 [Compound 4, Methyl 4-(5,5,8,8-tetramethyl-5,6,7,8-tetrahydro-2-naphthylselanylethynyl)benzoate] | 4 | RAR-agonist | –
